Data: patent US20200367506A1, “RARE EARTH DEPENDENT PLANT PROBIOTIC COMPOSITIONS AND METHODS OF USE” (BOARD OF TRUSTEES OF MICHIGAN STATE UNIVERSITY, priority 2017, published 2020)

Assays:
[1] = system: M. extorquens; assay: Illumina-based transcriptome analysis (RNA-seq) of cells grown with and without REE; format: cell-based; conditions: La^3+ vs without REE
Method: To identify mechanisms by which M. extorquens can sense and acquire REE, as well as to support REE-dependent methanol growth, Illumina-based transcriptome analyses (RNA-seq) was performed. Comparison of cells grown in liquid culture with and without REE addition allowed us to identify changes that may be relevant in planta.
It is intriguing to speculate that the reason why Fdh4 activity has never been detected is because it may require REEs. Frc12 and Oxr are enzymes of the oxalyl-CoA pathway (OXC). This pathway is known to produce glyoxylate when M. extorquens is grown with oxalate as a carbon source.

[2] = system: M. extorquens mxaF mutant strain; assay: REE/La^3+-dependent methanol growth of mxaF mutant strain; format: cell-based
Text: FIGS. 5A-5B show REE-dependent methylotrophy.
There is a direct link between REEs commonly used in fertilizers, such as La, Ce^3+, Pr^3+, and Nd^3+, and growth of M. extorquens using methanol as carbon source (FIG. 5A). […] Alternatively, it is possible that the remaining lanthanides are not transported into the cell. Detailed biochemical analyses are required to distinguish between these two possibilities.
The concentrations of exogenous La^3+ that would support La^3+-dependent methanol growth were assessed using methanol medium supplemented with La^3+ concentrations ranging from 0-20 μM (FIG. 5B). The mxaF mutant strain was used to eliminate any contribution by the Ca^2+-dependent methanol dehydrogenase MxaFI.

Compound: [La+3] [La^3+, lanthanum]
- Upregulation of Zn-containing alcohol dehydrogenase Zn-ADH [1]: 4.8 fold
- Upregulation of an ABC transporter [1]: 6.3 fold
- Upregulation of formate dehydrogenase Fdh4 [1]: 4 fold
- Upregulation of formyl-CoA transferase Frc12 [1]: 3 fold
- Upregulation of oxalyl-CoA (Oxr) [1]: 2.5 fold
- Upregulation of putative alcohol dehydrogenase quinoprotein ExaF [1]: 3.4 fold
- Upregulation of the PQQ synthesis pathway [1]: 10 fold
- Upregulation of methanol dehydrogenase genes XoxF1 and XoxF2 ([1]; methanol growth): 10 fold
- Final OD600 ([2]; 1 μM La^3+): 1.6
- La^3+ concentration resulting in maximal growth rate ([2]; methanol medium): 1 µM
- Lowest La^3+ concentration at which La^3+-dependent methanol growth was observed ([2]; poor growth): 2.5 nM
